Test results reported in article PMC8780549, “Discovery of Small Molecules as Membrane-Bound Catechol-O-methyltransferase Inhibitors with Interest in Parkinson’s Disease: Pharmacophore Modeling, Molecular Docking and In Vitro Experimental Validation Studies” (Pharmaceuticals, 2021).

Assays:
[1] = test system: dopaminergic neuronal cells (N27); assay: MTT cytotoxicity assay in N27 cells; type: cell-based; conditions: Rattus norvegicus, 48 h
[2] = test system: normal human dermal fibroblasts (NHDF); assay: MTT cytotoxicity assay in NHDF cells; type: cell-based; conditions: 48 h
Liver MBCOMT = conditions: cited from earlier work
human recombinant MBCOMT = target: T1, human recombinant MBCOMT (Homo sapiens, UniProt P21964); assay: In-vitro MBCOMT enzymatic inhibition assay (metanephrine from epinephrine, HPLC)
T1 sequence (P21964 1-271): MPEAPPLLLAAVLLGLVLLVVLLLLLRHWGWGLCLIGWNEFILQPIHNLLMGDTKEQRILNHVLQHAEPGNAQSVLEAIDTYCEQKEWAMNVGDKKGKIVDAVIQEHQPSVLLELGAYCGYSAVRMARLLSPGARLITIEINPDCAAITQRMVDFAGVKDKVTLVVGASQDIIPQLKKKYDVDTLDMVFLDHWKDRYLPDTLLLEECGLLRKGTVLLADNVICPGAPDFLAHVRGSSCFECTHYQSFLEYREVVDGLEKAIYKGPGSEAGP

[3] = IC50 (nM), Recombinant MBCOMT, this work, means with 95% confidence (n = 2 to 3)
[4] = IC50, Recombinant MBCOMT, bound stated

Structure (SMILES)	inhibition at 10 µM (human recombinant MBCOMT) [%]	inhibition at 100 µM (human recombinant MBCOMT) [%]	IC50 (human recombinant MBCOMT; [3]) [nM]	IC50 (human recombinant MBCOMT; [4]) [nM]	IC50 [1] [µM]	IC50 ([2]; Homo sapiens) [µM]	IC50 (Liver MBCOMT) [µM]	IC50 [2] [µM]	IC50 ([2]; Homo sapiens, NHDF) [µM]
O=c1[nH]cc(F)c(=O)[nH]1 [Compound 5-FU, 5-fluorouracil, reference compound]					4.28	5.16			
Cc1ccc(C(=O)c2cc(O)c(O)c([N+](=O)[O-])c2)cc1 [Tolcapone]							0.123		
Cc1[nH]nc(-c2ccc(O)c(O)c2O)c1Oc1ccccc1 [ZINC302226]	56	100	1080		52.5	> 100			
N#Cc1cc(O)c(O)c([N+](=O)[O-])c1 [ZINC27985035]					61.3			40.3	40.3
CC(C)Cn1c(-c2cc(-c3ccc(O)c(O)c3O)nc3c2c(O)nn3C(C)C)nc2ccccc21 [ZINC95473053]	41	46							
C[C@@]1(C(=O)O)CC[C@]2(C)CC[C@]3(C)C4=CC(=O)c5c(cc(O)c(O)c5C=O)[C@@]4(C)CC[C@@]3(C)[C@@H]2C1 [ZINC605706834]	39	34							
Cc1ccc(/N=C/c2c(O)c(O)cc3ccccc23)cc1 [ZINC825166420]	72	100	1540		17	12.1			

Second part, led by results:

inhibition at 10 µM (human recombinant MBCOMT) [%]	inhibition at 100 µM (human recombinant MBCOMT) [%]	IC50 (human recombinant MBCOMT; [3]) [nM]	IC50 (human recombinant MBCOMT; [4]) [nM]	Structure (SMILES)	IC50 [1] [µM]	IC50 ([2]; Homo sapiens) [µM]	IC50 (Liver MBCOMT) [µM]	IC50 [2] [µM]	IC50 ([2]; Homo sapiens, NHDF) [µM]
100	100	944	< 1000	C/C(=N\Cc1ccccc1)c1ccc(O)c(O)c1O [ZINC98288]	69.8	> 100			
100	100			COC(=O)c1cc(O)c(O)c([N+](=O)[O-])c1 [ZINC38175059]					
40	43			Cc1cc(=O)oc2c(O)c(O)c(C(=O)O)cc12 [ZINC68675288]					
81	100	470	< 1000	O=Cc1cc([N+](=O)[O-])c(O)c(O)c1Br [ZINC78496496]	> 100	92.9			
14	27			COc1ccc(-c2nc(-c3cccc(O)c3O)[nH]c2-c2oc(C)cc(=O)c2O)cc1 [ZINC1547205762]					
